The subject of series [1] is Candida albicans ATCC10231. Put plainly: Systemic fungal infection in mice, intragastric administration. It is filed as in vivo, ICR mice. As to conditions: Candida albicans, ATCC10231, po.
The nature of series [2]: In vitro metabolic stability in rat intestine S9. It is filed as in vitro ADME. Particulars: rat, intestinal S9, pH 7.4; 37° C., 10 μM compound, 1 mg/mL S9, NADPH regeneration system; read-out: Rat intestine S9 T1/2. In a few lines:
(§1)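 Human or rat plasma, preincubated 5 min at 37 °C, or intestinal S9 at 37 °C, spiked from 1 mM stock; triplicates sampled at 1, 2, 5, 15 and 30 min into cold internal standard. HPLC quantitation; half-life by non-compartmental analysis.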

For series [3], the system named is Candida albicans ATCC10231. As to the kind of experiment: Systemic fungal infection in mice, intravenous administration. It is filed as in vivo, ICR mice. As for the experimental part:
ICR mice, weighing 18-22 g, male, provided by Hubei Experimental Animal Center.
Prior to the experiment, a small amount of Candida albicans was picked from an SDA (sacharomyces agar, the same below) medium kept at 4° C. with an inoculation loop and inoculated into 1 ml YPD (Yeast Extract Peptone Dextrose Medium) culture medium, cultured at 30° C. with 200 rpm shaking and activated for 16 hours, so that the fungus was in the late stage of exponential growth. Counted with a hemocytometer and the fungal solution concentration was adjusted to 1×10^3-5×10^3 CFU/ml with RPMI1640 medium (Roswell Park Memorial Institute 1640, the same below). Monoclonal Candida albicans on SDA plate was picked up, inoculated into 1 ml YPD (Yeast Extract Peptone Dextrose Medium, the same below) culture medium, cultured at 35° C., 200 rpm for 16 hours until late exponential growth phase. Candida albicans was inoculated into fresh medium for culturing for 6 hours at 1%, centrifuged at 1000×g for 5 minutes, washed with physiological saline three times until the supernatant was colorless, counted with a hemocytometer, and the cell concentration was adjusted to 5×10^6 cells/ml. A tail vein injection of 0.1 ml/10 g caused a systemic fungal infection in mice. […] A total of 7 days of observations were performed. All dead mice were burned with ethanol.

Series [4] can be described thus: In vitro metabolic stability in human plasma. It is filed as in vitro ADME. As to conditions: human, plasma, 37° C., 10 μM compound, read-out: Human plasma T1/2. In a few lines: as §1
A short description of series [5]: Solid stability test (stability chamber, HPLC total impurity). It is filed as physicochemical.
The nature of series [6]: In vitro metabolic stability in human intestine S9. It is filed as in vitro ADME. As to conditions: human, intestinal S9; 37° C., 10 μM compound, 1 mg/mL S9, NADPH regeneration system; read-out: Human intestine S9 T1/2. The method, boiled down: as §1
Series [7] is described as follows: In vitro metabolic stability in rat plasma. It is filed as in vitro ADME. As to conditions: rat, plasma, 37° C., 10 μM compound, read-out: Rat plasma T1/2. The method, boiled down:
as §1

Series [8] in a line: Determination of solubility in deionized water (HPLC, external standard). Particulars: 25 °C, water, thermodynamic from solid.
For series [9], the system named is Aspergillus fumigatus AF293. As to the kind of experiment: Lung Aspergillus fumigatus infection in immunosuppressed mice, intravenous administration. Particulars: for responders at 20 mg/kg: Aspergillus fumigatus, AF293, in Mus musculus, iv; for lung fungal load: mouse lung tissue, seven days later, 20 mg/kg tail vein once daily for 5 days, mean ± SD.
Series [10] relates to Aspergillus Fumigutus (AF) strains. As to the kind of experiment: Aspergillus fumigatus keratitis in rats, intravenous administration. As to conditions: 10 mg/kg tail vein once daily for 5 days; mean ± SD of 10 rats.
Where [11] appears, read: 24 h, read-out: survival rate of mice, day 1, 20 mg/kg intragastric once daily for 5 days, day 1.
The mark [12] stands for this setting: 48 h, read-out: survival rate of mice, day 2, 20 mg/kg intragastric once daily for 5 days, day 2.
The mark [13] stands for this setting: 72 h, read-out: survival rate of mice, day 3, 20 mg/kg intragastric once daily for 5 days, day 3.
Where [14] appears, read: 96 h, read-out: survival rate of mice, day 4, 20 mg/kg intragastric once daily for 5 days, day 4.
The mark [15] stands for this setting: 120 h, read-out: survival rate of mice, day 5, 20 mg/kg intragastric once daily for 5 days, day 5.
Setting [16] is: 144 h, read-out: survival rate of mice, day 6, 20 mg/kg intragastric once daily for 5 days, day 6.
Where [17] appears, read: 168 h, read-out: survival rate of mice, day 7, 20 mg/kg intragastric once daily for 5 days, day 7.
The mark [18] stands for this setting: 24 h, read-out: survival rate of mice, day 1.
The mark [19] stands for this setting: 48 h, read-out: survival rate of mice, day 2.
Setting [20] is: 72 h, read-out: survival rate of mice, day 3.
Where [21] appears, read: 96 h, read-out: survival rate of mice, day 4.
The mark [22] stands for this setting: 120 h, read-out: survival rate of mice, day 5.
Setting [23] is: 144 h, read-out: survival rate of mice, day 6.
The mark [24] stands for this setting: 168 h, read-out: survival rate of mice, day 7.
Setting [25] is: 24 h, read-out: survival rate of mice, day 1, 20 mg/kg tail vein once daily for 5 days, day 1.
[26] abbreviates: 48 h, read-out: survival rate of mice, day 2, 20 mg/kg tail vein once daily for 5 days, day 2.
The mark [27] stands for this setting: 72 h, read-out: survival rate of mice, day 3, 20 mg/kg tail vein once daily for 5 days, day 3.
The mark [28] stands for this setting: 96 h, read-out: survival rate of mice, day 4, 20 mg/kg tail vein once daily for 5 days, day 4.
Setting [29] is: 120 h, read-out: survival rate of mice, day 5, 20 mg/kg tail vein once daily for 5 days, day 5.
The mark [30] stands for this setting: 144 h, read-out: survival rate of mice, day 6, 20 mg/kg tail vein once daily for 5 days, day 6.
Where [31] appears, read: 168 h, read-out: survival rate of mice, day 7, 20 mg/kg tail vein once daily for 5 days, day 7.

Where two headings read alike, the source gives them in different places. A value given as a limit tells only on which side of the number the result lay.

A word on the solubility: it is the concentration that dissolves in the medium under given conditions. The low end stands for a poorly soluble substance, the high end for a readily soluble substance. Take `CC[C@@H]([C@H](C)O)n1ncn(-c2ccc(N3CCN(c4ccc(OC[C@@H]5CO[C@@](Cn6c[n+](C(C)OC(=O)N(C)c7ncccc7COC(=O)[C@@H](N)CC(N)=O)cn6)(c6ccc(F)cc6F)C5)cc4)CC3)cc2)c1=O` (stereo partly drawn) [ST0023]: the responders at 20 mg/kg in [1] (setting [11]) is 100%; in series [1] (setting [12]), 100%; in series [1] (setting [13]), 90%; in series [1] (setting [14]), 90%; in series [1] (setting [15]) it was 90%; in [1] (setting [16]), 80%. The responders at 20 mg/kg came to 80% in series [1] (setting [17]); 100% in series [3] (setting [18]); 100% in [3] (setting [19]); 100% in series [3] (setting [20]); 100% in series [3] (setting [21]); 100% in [3] (setting [22]). In addition, the responders at 20 mg/kg in series [3] (setting [23]) and in series [3] (setting [24]) was 90% each time. Besides, the half-life at 10 µM stood at 16.7 ± 2.96 min in series [2], 0.94 ± 0.15 min in [4], 15 ± 3.78 min in series [6] and 0.55 ± 0.78 min in series [7]. The “Total impurity increment in 30 days” value in series [5] is reported as 0.42%. Further, in [8], the solubility at 30 min was > 50 mg/mL.

As for `CC[C@@H]([C@H](C)O)n1ncn(-c2ccc(N3CCN(c4ccc(OC[C@@H]5CO[C@@](Cn6c[n+](C(C)OC(=O)N(C)c7ncccc7COC(=O)[C@@H](N)[C@@H](C)O)cn6)(c6ccc(F)cc6F)C5)cc4)CC3)cc2)c1=O` (stereo partly drawn) [ST0026], the responders at 20 mg/kg in series [1] (setting [11]) worked out at 100%; in series [1] (setting [12]), 100%; in [1] (setting [13]), 90%; in series [1] (setting [14]) it was 80%; in [1] (setting [15]), 70%; in series [1] (setting [16]), 70%. In addition, the responders at 20 mg/kg in series [1] (setting [17]) was 70%. In addition, the half-life at 10 µM in series [2] worked out at 19 ± 5.96 min; in [4] it was 1.03 ± 0.09 min; in series [6], 16.4 ± 7.54 min; in [7] it was 2.69 ± 1.21 min. In addition, in [5], the “Total impurity increment in 30 days” value came out at 0.46%. For the same compound, the solubility at 30 min in series [8] was > 50 mg/mL.

Take `CC[C@@H]([C@H](C)O)n1ncn(-c2ccc(N3CCN(c4ccc(OC[C@@H]5CO[C@@](Cn6c[n+](C(C)OC(=O)N(C)c7ncccc7COC(=O)[C@@H](N)CCC(N)=O)cn6)(c6ccc(F)cc6F)C5)cc4)CC3)cc2)c1=O` (stereo partly drawn) [ST0022]: the responders at 20 mg/kg in series [1] (setting [11]) was determined as 100%; in series [1] (setting [12]), 100%; in [1] (setting [13]), 100%; in [1] (setting [14]) it was 90%; in series [1] (setting [15]), 80%; in [1] (setting [16]) it was 80%. Also, in series [1] (setting [17]), the responders at 20 mg/kg amounted to 70%. For the same compound, the half-life at 10 µM in series [2] was determined as 19 ± 5.36 min; in [4], 1.39 ± 0.52 min; in series [6] it was 17.7 ± 4.52 min; in series [7] it was 1.12 ± 0.45 min. For the same compound, the “Total impurity increment in 30 days” value in series [5] worked out at 0.48%. Besides, in series [8], the solubility at 30 min was > 50 mg/mL.

Consider `CC[C@@H]([C@H](C)O)n1ncn(-c2ccc(N3CCN(c4ccc(OC[C@@H]5CO[C@@](Cn6c[n+](C(C)OC(=O)N(C)c7ncccc7COC(=O)[C@@H](N)CO)cn6)(c6ccc(F)cc6F)C5)cc4)CC3)cc2)c1=O` (stereo partly drawn) [ST0025], for which the responders at 20 mg/kg in series [1] (setting [11]) is 100%; in series [1] (setting [12]), 100%; in series [1] (setting [13]), 90%; in series [1] (setting [14]) it was 90%; in series [1] (setting [15]), 80%; in [1] (setting [16]), 80%. Further, the responders at 20 mg/kg in [1] (setting [17]) was 80%; in series [3] (setting [18]), 100%; in series [3] (setting [19]), 100%; in series [3] (setting [20]), 100%; in series [3] (setting [21]) it was 100%; in series [3] (setting [22]), 100%. For the same compound, the responders at 20 mg/kg in [3] (setting [23]) and in series [3] (setting [24]) was 90% in each case. Also, the half-life at 10 µM in [2] worked out at 22.5 ± 5.96 min; in [4], 0.92 ± 0.03 min; in series [6], 25 ± 4.76 min; in series [7], 1.22 ± 0.85 min. In addition, the “Total impurity increment in 30 days” value in [5] was 0.55%. For the same compound, in series [8], the solubility at 30 min was > 50 mg/mL.

Regarding `CC[C@@H]([C@H](C)O)n1ncn(-c2ccc(N3CCN(c4ccc(OC[C@@H]5CO[C@@](Cn6c[n+](C(C)OC(=O)N(C)c7ncccc7COC(=O)CCC(=O)O)cn6)(c6ccc(F)cc6F)C5)cc4)CC3)cc2)c1=O` (stereo partly drawn) [ST0005], the responders at 20 mg/kg in series [9] (setting [25]) came to 100%; in [9] (setting [26]), 90%; in series [9] (setting [27]), 80%; in series [9] (setting [28]), 80%; in [9] (setting [29]), 70%; in series [9] (setting [30]), 60%. In addition, the responders at 20 mg/kg in series [9] (setting [31]) stood at 50%. Also, in [9], the lung fungal load is on record as 3.40 ± 1.26 10^4 CFU/ml. In [8], the solubility at 30 min was > 50 mg/mL. Besides, the “Amount of active fungi in cornea at day 7” value in series [10] is 5.90 ± 1.06 10^3 CFU/ml.

For `CC[C@@H]([C@H](C)O)n1ncn(-c2ccc(N3CCN(c4ccc(OC[C@@H]5CO[C@@](Cn6c[n+](C(C)OC(=O)N(C)c7ncccc7COC(=O)C[C@H](N)C(=O)O)cn6)(c6ccc(F)cc6F)C5)cc4)CC3)cc2)c1=O` (stereo partly drawn) [ST0004], the responders at 20 mg/kg worked out at 100% in series [9] (setting [25]); 90% in series [9] (setting [26]); 80% in series [9] (setting [27]); 80% in series [9] (setting [28]); 70% in [9] (setting [29]); 60% in series [9] (setting [30]). In addition, the responders at 20 mg/kg in series [9] (setting [31]) is 50%. The lung fungal load in series [9] is recorded as 3.51 ± 1.38 10^4 CFU/ml. In addition, the solubility at 30 min in series [8] is > 50 mg/mL. Moreover, in series [10], the “Amount of active fungi in cornea at day 7” value is listed as 5.58 ± 1.12 10^3 CFU/ml.

Regarding `CC[C@@H]([C@H](C)O)n1ncn(-c2ccc(N3CCN(c4ccc(OC[C@@H]5CO[C@@](Cn6c[n+](C(C)OC(=O)N(C)c7ncccc7COC(=O)[C@@H](N)CCCCN)cn6)(c6ccc(F)cc6F)C5)cc4)CC3)cc2)c1=O` (stereo partly drawn) [ST0024], the responders at 20 mg/kg in series [1] (setting [11]) is 100%; in [1] (setting [12]) it was 90%; in [1] (setting [13]), 90%; in [1] (setting [14]) it was 80%; in [1] (setting [15]) it was 80%; in [1] (setting [16]) it was 70%. Also, the responders at 20 mg/kg in series [1] (setting [17]) was 70%. Also, the half-life at 10 µM was 15.6 ± 5.96 min in [2], 1.57 ± 0.34 min in series [4], 12.2 ± 5.9 min in [6] and 2.51 ± 0.69 min in series [7]. Also, in [5], the “Total impurity increment in 30 days” value was 0.62%. In addition, the solubility at 30 min in series [8] is > 50 mg/mL.
